Organism: Rattus norvegicus
Assay: Open TG-GATES - Regimen: Single
Format: toxicity, organism-based, Sprague-Dawley
Set-up: regimen Single, gender Male, age 6 weeks
Details: in vivo, po, 300 mg/kg, route gavage, dose level Middle; for APTT / Bas / Eos / Fbg / Hb / Ht / Lym / MCH / MCHC / MCV / Mono / Neu / PT / Plat / RBC / Ret / WBC: tissue Blood; for KIDNEY_L / KIDNEY_R / KIDNEY_TOTAL: tissue Kidney; for LIVER: tissue Liver; for ALP / ALT / AST / BUN / CRE / Ca / Cl / DBIL / GLC / IP / K / LDH / Na / PL / RALB / TBIL / TC / TG / TP / gamma-GTP: tissue Plasma

## COC(=O)C1=C(C)NC(C)=C(C(=O)OC)C1c1ccccc1[N+](=O)[O-] [NIFEDIPINE]
3 h
  APTT: 16.6 s
  Bas: 0.2%
  Eos: 0.6%
  Fbg: 299.2 mg/dL
  Hb: 12.8 g/dL
  Ht: 39.1%
  Lym: 75.2%
  MCH: 21 pg
  MCHC: 32.9%
  MCV: 63.8 fL
  Mono: 3.8%
  Neu: 19.8%
  PT: 15.1 s
  Plat: 126.5 x10_4/uL
  RBC: 613 x10_4/ul
  Ret: 9.4%
  WBC: 113.9 x10_2/uL
  KIDNEY_L: 0.9 g
  KIDNEY_R: 0.9 g
  KIDNEY_TOTAL: 1.8 g
  LIVER: 8.1 g
  ALP: 1571 IU/L
  ALT: 46.2 IU/L
  AST: 74.8 IU/L
  BUN: 27.6 mg/dL
  CRE: 0.3 mg/dL
  Ca: 11.6 mg/dL
  Cl: 96.8 meq/L
  DBIL: 0.01 mg/dL
  GLC: 263.6 mg/dL
  IP: 9.5 mg/dL
  K: 4.7 meq/L
  LDH: 85 IU/L
  Na: 134.6 meq/L
  PL: 135.4 mg/dL
  RALB: 2.6 g/dL
  TBIL: 0.034 mg/dL
  TC: 84.2 mg/dL
  TG: 33.6 mg/dL
  TP: 5.3 g/dL
  gamma-GTP: 1 IU/L
6 h
  TERMINAL_BW: 205.3 g
  APTT: 16.3 s
  Bas: 0%
  Eos: 0.6%
  Fbg: 293.2 mg/dL
  Hb: 13.1 g/dL
  Ht: 40%
  Lym: 75%
  MCH: 20.7 pg
  MCHC: 32.6%
  MCV: 63.5 fL
  Mono: 3.8%
  Neu: 19.8%
  PT: 14.9 s
  Plat: 123.8 x10_4/uL
  RBC: 632 x10_4/ul
  Ret: 10%
  WBC: 101.9 x10_2/uL
  KIDNEY_L: 0.9 g
  KIDNEY_R: 0.9 g
  KIDNEY_TOTAL: 1.8 g
  LIVER: 7.9 g
  ALP: 1503.6 IU/L
  ALT: 51.2 IU/L
  AST: 78.8 IU/L
  BUN: 32.2 mg/dL
  CRE: 0.2 mg/dL
  Ca: 11.3 mg/dL
  Cl: 97.6 meq/L
  DBIL: 0.006 mg/dL
  GLC: 221.4 mg/dL
  IP: 10.7 mg/dL
  K: 5.1 meq/L
  LDH: 78.8 IU/L
  Na: 136.6 meq/L
  PL: 150.4 mg/dL
  RALB: 2.6 g/dL
  TBIL: 0.042 mg/dL
  TC: 90.6 mg/dL
  TG: 19.4 mg/dL
  TP: 5.5 g/dL
  gamma-GTP: 1.2 IU/L
9 h
  TERMINAL_BW: 206.1 g
  APTT: 17.3 s
  Bas: 0%
  Eos: 0.6%
  Fbg: 288 mg/dL
  Hb: 13.1 g/dL
  Ht: 39.7%
  Lym: 78.2%
  MCH: 21 pg
  MCHC: 33%
  MCV: 63.7 fL
  Mono: 3.6%
  Neu: 16.4%
  PT: 14.6 s
  Plat: 124.2 x10_4/uL
  RBC: 623 x10_4/ul
  Ret: 9.8%
  WBC: 94.7 x10_2/uL
  KIDNEY_L: 0.9 g
  KIDNEY_R: 0.9 g
  KIDNEY_TOTAL: 1.8 g
  LIVER: 7.3 g
  ALP: 1317.2 IU/L
  ALT: 51.2 IU/L
  AST: 76.6 IU/L
  BUN: 26.8 mg/dL
  CRE: 0.2 mg/dL
  Ca: 10.9 mg/dL
  Cl: 100.8 meq/L
  DBIL: 0.01 mg/dL
  GLC: 193.4 mg/dL
  IP: 11.1 mg/dL
  K: 5 meq/L
  LDH: 72.4 IU/L
  Na: 137.4 meq/L
  PL: 156.4 mg/dL
  RALB: 2.5 g/dL
  TBIL: 0.046 mg/dL
  TC: 91 mg/dL
  TG: 28.2 mg/dL
  TP: 5.4 g/dL
  gamma-GTP: 1 IU/L
24 h
  TERMINAL_BW: 198.5 g
  APTT: 16.6 s
  Bas: 0%
  Eos: 1%
  Fbg: 298.6 mg/dL
  Hb: 13.1 g/dL
  Ht: 40%
  Lym: 67%
  MCH: 20.4 pg
  MCHC: 32.7%
  MCV: 62.2 fL
  Mono: 3.6%
  Neu: 27%
  PT: 14.1 s
  Plat: 128.1 x10_4/uL
  RBC: 643.8 x10_4/ul
  Ret: 9%
  WBC: 95.9 x10_2/uL
  KIDNEY_L: 0.9 g
  KIDNEY_R: 0.9 g
  KIDNEY_TOTAL: 1.7 g
  LIVER: 7.8 g
  ALP: 1579.6 IU/L
  ALT: 43.8 IU/L
  AST: 68.4 IU/L
  BUN: 12 mg/dL
  CRE: 0.2 mg/dL
  Ca: 10.6 mg/dL
  Cl: 107.4 meq/L
  DBIL: 0.012 mg/dL
  GLC: 160.4 mg/dL
  IP: 8.3 mg/dL
  K: 3.9 meq/L
  LDH: 73.8 IU/L
  Na: 145 meq/L
  PL: 133.6 mg/dL
  RALB: 2.8 g/dL
  TBIL: 0.042 mg/dL
  TC: 77.8 mg/dL
  TG: 41.2 mg/dL
  TP: 5.8 g/dL
  gamma-GTP: 0.8 IU/L

Source: ChEMBL document CHEMBL3885861, “Open TG-GATES”
